# Assay results: ChEMBL document CHEMBL4118116, “Benzoxazine derivatives of phytophenols show anti-plasmodial activity via sodium homeostasis disruption” (Bioorg Med Chem Lett, 2018)
# The source made the active and inactive calls. The rule behind the calls is not given here.
# Assays:
# [1] = test system: HepG2; assay: Cytotoxicity against human HepG2 cells assessed as reduction in cell viability at 50 uM after 24 hrs by MTT assay; format: cell-based; settings: hepg2, 24 h
# [2] = test system: Plasmodium falciparum; assay: Growth inhibition of schizont stage Plasmodium falciparum 3D7 infected in human erythrocytes at 10 uM after 46 hrs by ethidium bromide staining based flow cytometric analysis relative to control; format: functional; settings: 3D7, 46 h, read-out: GI
# [3] = test system: Plasmodium falciparum; assay: Growth inhibition of schizont stage Plasmodium falciparum 3D7 infected in human erythrocytes at 50 uM after 46 hrs by ethidium bromide staining based flow cytometric analysis relative to control; format: functional; settings: 3D7, 46 h, read-out: GI
# [4] = test system: Plasmodium falciparum; assay: Antiplasmodial activity against late trophozoite stage of Plasmodium falciparum 3D7 infected in human erythrocytes measured after 46 hrs by ethidium bromide staining based flow cytometric analysis; format: functional, organism-based; settings: for EC50: 3D7, 46 h
# [5] = test system: Plasmodium falciparum; assay: Induction of mitochondrial membrane potential loss in trophozoite stage of Plasmodium falciparum 3D7 infected in human erythrocytes assessed as decrease in JC1 red to JC1 green ratio at 50 uM by JC1 staining based microscopic analysis; format: functional, organism-based
# [6] = test system: Plasmodium falciparum 3D7; assay: Inhibition of P-type cation ATPase ATP4 in trophozoite stage of Plasmodium falciparum 3D7 infected in human erythrocytes assessed as increase in Na+/- levels at 50 uM by sodium green dye based microscopic analysis; format: cell-based
# [7] = test system: Plasmodium falciparum; assay: Antiplasmodial activity against late trophozoite stage of Plasmodium falciparum 3D7 infected in human erythrocytes measured after 46 hrs in presence of graphene oxide 2 by ethidium bromide staining based flow cytometric analysis; format: functional, organism-based; settings: 3D7, 46 h
# [8] = test system: Plasmodium falciparum 3D7; assay: (§1) Inhibition of P-type cation ATPase ATP4 in trophozoite stage of Plasmodium falciparum 3D7 infected in human erythrocytes assessed as swelling of intraerythrocytic parasites by measuring diameter of parasite at 50 uM after 4 hrs by sodium green dye based microscopic analysis (reference value: 3.5 micrometer); format: cell-based
# [9] = test system: Plasmodium falciparum; assay: Ratio of EC50 for antiplasmodial activity against late trophozoite stage of Plasmodium falciparum 3D7 infected in human erythrocytes to EC50 for antiplasmodial activity against late trophozoite stage of Plasmodium falciparum 3D7 infected in human erythrocytes in presence of graphene oxide 2; format: functional
# [10] = test system: Plasmodium falciparum 3D7; assay: as §1, with “of parasitized RBC” for “of parasite”, “value: 5.03” for “value: 3.5”; format: cell-based
# [11] = test system: Plasmodium falciparum; assay: Antiplasmodial activity against late trophozoite stage of Plasmodium falciparum 3D7 infected in human erythrocytes measured after 46 hrs in presence of graphene oxide 1 by ethidium bromide staining based flow cytometric analysis; format: functional, organism-based; settings: 3D7, 46 h
EC50 [4],EC50 [7],EC50 [11],SMILES,Activity [1],inhibition of growth at 10 µM [2],inhibition of growth at 50 µM [3],Activity [4],Activity [5],inhibition [6],Activity [8],Ratio EC50 [9],Activity [10]
–,–,–,C=CCc1ccc(O)c(OC)c1 [EUGENOL],Non-Toxic,–,–,–,–,–,–,–,–
22 µM,–,–,C=CCc1cc2c(c(OC)c1)OCN(Cc1ccco1)C2,Non-Toxic,4.7%,58.5%,Dose-dependent effect,Active,Active,–,–,–
17.5 µM,0.49 µM,7.19 µM,C/C=C/c1cc2c(c(OC)c1)OCN(Cc1ccco1)C2,Non-Toxic,14.9%,73%,Dose-dependent effect,Active,Active,4.4 µm,36,6.3 µm
–,–,–,C/C=C/c1ccc(O)c(OC)c1,Non-Toxic,–,–,–,–,–,–,–,–
